Measurements as given in patent US6831106B1, “Vitamin D analogues” (Galderma Research & Development, S.N.C., priority 1999, dated 2004).

Columns and labels:
human VDR receptor = molecular target: T1, human VDR receptor (Homo sapiens, UniProt P11473); assay: VDR agonist activity, co-transfection of human VDR expression vector and p240Hase-CAT reporter in HeLa cells; type: cell-based; conditions: HeLa cell line, CAT reporter under rat 24-hydroxylase promoter, 18 hours treatment, ELISA; read-out: AC 50 (dose required to achieve 50% of the maximum activity of the product)
T1 construct: expressed in transfected cells; host or cells: HeLa
T1 sequence (P11473 1-427): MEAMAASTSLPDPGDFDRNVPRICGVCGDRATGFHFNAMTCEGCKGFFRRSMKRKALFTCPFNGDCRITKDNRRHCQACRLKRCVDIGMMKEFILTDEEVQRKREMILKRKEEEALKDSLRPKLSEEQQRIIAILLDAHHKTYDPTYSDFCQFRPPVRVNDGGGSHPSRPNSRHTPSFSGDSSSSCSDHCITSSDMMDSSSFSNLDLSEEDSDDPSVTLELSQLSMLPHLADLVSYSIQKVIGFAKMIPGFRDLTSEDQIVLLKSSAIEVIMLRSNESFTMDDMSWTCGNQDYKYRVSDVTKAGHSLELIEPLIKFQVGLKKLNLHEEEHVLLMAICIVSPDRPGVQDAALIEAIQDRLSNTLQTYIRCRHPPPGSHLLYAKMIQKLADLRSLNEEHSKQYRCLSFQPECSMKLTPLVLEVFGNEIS
Procedure: By way of example, the VDR agonist activity can be tested on the HeLa cell line by co-transfection with an expression vector for the human VDR receptor and the reporter plasmid p240Hase-CAT which contains the region −1399 to +76 of rat 24-hydroxylase promoter, cloned upstream of the frame encoding the chloramphenicol-acetyl-transferase (CAT)′gene. 18 hours after co-transfection, the test product is added to the medium. 18 hours after treatment, assay of the CAT activity in the cell lysates is carried out by an ELISA test. The results are expressed as percentages of the effect normally observed with 10^−7M calcitriol.
The agonist activity can also be characterized in this co-transfection system, by determining the dose required to reach 50% of the maximum activity of the product (AC50).
The VDR agonist activity was tested on the HeLa cell line, by co-transfection of an expression vector of the human VDR receptor and of the reporter plasmid p240Hase-CAT which contains the region −1399 to +76 of the rat 24-hydroxylase promoter, cloned upstream of the coding frame of the chloramphenicol-acetyl-transferase (CAT) gene. 18 hours after co-transfection, the test product is added to the medium. After treatment for 18 hours, the CAT activity of the cell lysates is assayed by an ELISA test. The results are expressed as a percentage of the effect normally observed with 10^−7 M of calcitriol.
The agonist activity was characterized in this co-transfection system by determining the dose required to achieve 50% of the maximum activity of the product (AC50).

seborrhoeic scalp = assay: antiseboric lotion applied to a seborrhoeic scalp; type: in vivo; conditions: lotion with 0.030 g compound per 100 g, applied twice a day, within a period of 2 to 6 weeks

AC50 (human VDR receptor)	SMILES	improvement of seborrhoeic scalp (seborrhoeic scalp)
2040 nM	CCC(O)(CC)c1ccc(-c2cccc(SCc3ccc(CO)c(CO)c3)c2)c(C)c1 [Example 10, {4-[4′-(1-Ethyl-1-hydroxypropyl)-2′-methylbiphenyl-3-ylsulphanylmethyl]-2-hydroxymethylphenyl}methanol]	
	CCCC(O)(CCC)c1ccc(-c2cccc(OCc3ccc(CO)c(CO)c3)c2C)c(C)c1 [Example 12, {2-Hydroxymethyl-4-[4′-(1-hydroxy-1-propylbutyl)-2,2′-dimethylbiphenyl-3-yloxymethyl]phenyl}methanol]	significant improvement
194 nM	CCC(O)(CC)c1cc(C)c(-c2cc(OCc3ccc(CO)c(CO)c3)ccc2C)c(C)c1 [Example 17, {4-[4′-(1-Ethyl-1-hydroxypropyl)-6,2′,6′-trimethylbiphenyl-3-yloxymethyl]-2-hydroxymethylphenyl}methanol]	
451 nM	CCC(O)(CC)c1ccc(-c2cccc(COc3ccc(CO)c(CO)c3)c2)c(C)c1 [Example 22, {4-[4′-(1-Ethyl-1-hydroxypropyl)-2′-methylbiphenyl-3-ylmethoxy]-2-hydroxymethylphenyl}methanol]	
133 nM	CCC(O)(CC)c1ccc(-c2cc(OCc3ccc(CO)c(CO)c3)ccc2C)cc1 [Example 18, {4-[4′-(1-Ethyl-1-hydroxypropyl)-6-methylbiphenyl-3-yloxymethyl]-2-hydroxymethylphenyl}methanol]	
291 nM	CCC(O)(CC)c1ccc(-c2cccc(OCc3ccc(CO)c(CO)c3)c2C)c(C)c1 [Example 11, {4-[4′-(1-Ethyl-1-hydroxypropl)-2,2′-dimethylbiphenyl-3-yloxymethyl]-2-hydroxymethylphenyl}methanol]	
470 nM	CCC(O)(CC)c1ccc(-c2cccc(OCc3ccc(CO)c(CO)c3)c2)c(C)c1 [Example 3, {5-4′-[(1-Ethyl-1-hydroxypropyl)-2′-methylbiphenyl-3-yloxymethyl]-2-hydroxymethylphenyl}methanol]	
46 nM	CCC(O)(CC)c1ccc(-c2cc(OCc3ccc(CO)c(CO)c3)ccc2C)c(C)c1 [Example 16, {4-[4′-(1-Ethyl-1-hydroxypropyl)-6,2′-dimethylbiphenyl-3-yloxymethyl]-2-hydroxymethylphenyl}methanol]	
